Results as given in PubChem BioAssay AID2060601 (Molecular Pharmacology Branch, DTP, NCI, 2025).

System: 874868-142-R-J2-PDC complex spheroids, growth % test/control
Experiment: Anticancer human tumor 874868-142-R-J2-PDC patient-derived head and neck squamous carcinoma cell line growth inhibition [CLK]
Conditions: for IC50: curve of first compound; for viability, T/C: stronger effect = lower value
Text: A high-throughput screen of multi-cell type tumor spheroids was designed to identify active combinations of […] and targeted small molecules. Complex spheroids include a stromal component modeled by human endothelial cells (HUVEC) and fibroblasts modeled by human mesenchymal stem cells (MSCs). The concentration ranges selected for each drug and investigational agent were based upon clinically achievable concentrations if the clinical Cmax of the agent was known.
Compounds. The drugs and investigational agents: cirtuvivint (SM08502; NSC835563), CC-671 (NSC850746), vemurafenib (NSC761431), tapotoclax (NSC804041), sotorasib (NSC818433), adagrasib (NSC831453), MRTX-1133 (NSC836407), BAY2416964 (NSC825713), copanlisib (NSC816437), inavolisib (NSC800729), abemaciclib (NSC768073), osimertinib (NSC779217), entinostat (NSC756642), eltanexor (KPT-8602, NSC794443), venetoclax (NSC766270), ceralasertib (NSC777638), bortezomib (NSC756655), olaparib (NSC753686), talazoparib (NSC767125), alisertib (NSC759677), peposertib (NSC802822), gemcitabine (NSC613327), 5-fluorouracil (NSC19893), SN-38 (NSC673596), oxaliplatin (NSC266046), paclitaxel (NSC125973), and doxorubicin (NSC123127), were obtained from the National Cancer Institute (NCI) Developmental Therapeutics Program Chemical Repository. The FDA-approved anticancer drug set is available from the Developmental Therapeutics Program at https://dtp.cancer.gov/organization/dscb/obtaining/available plates.htm. […] The stock solutions were prepared in dimethyl sulfoxide (DMSO, Sigma-Aldrich, St. Louis, MO, cat. D2650), except for the platinum complexes which were prepared in saline (Quality Biological, Gaithersburg, MD, cat. 114-055-101), at 800-fold the tested concentration and stored at -70 degrees C prior to their use. All drugs and investigational agents were tested over a range starting from a high concentration at or near the clinical Cmax and decreasing in half-log increments. If the clinical Cmax for an agent had not been determined, the highest concentration tested was 10 microM.
Cell Culture. All cells were maintained in an incubator at 37 degrees C and 5% CO2 with 95% humidity. The PDC lines were cultured according to standard operating procedures established by the NCI PDMR. Briefly, all PDCs were thawed and cultured in Matrigel-coated flasks prepared with a working solution of 1X Ham's F-12 nutrient mix, without supplementation (Invitrogen, Waltham, MA, cat. 11765054), 100 U/mL penicillin-streptomycin (Invitrogen, cat. 15140122), and 2.5% Matrigel (Corning Inc., Corning, NY, cat. 354248) for the first three passages. The 947758-054-R-J2-PDC line was cultured in 6B/Colon 1A media, which includes advanced DMEM/F-12 (Thermo Fisher Scientific, cat. 12634028), 10 mM HEPES (Thermo Fisher Scientific, cat. 15630080), 1X GlutaMAX supplement (Thermo Fisher Scientific, cat. 35050061), 0.1 mg/mL primocin (InvivoGen, cat. ant-pm-2), 10% defined fetal bovine serum, heat inactivated (HyClone Laboratories Inc., cat. SH30070.03HI), 1.25 mM N-Acetyl-L-cysteine (Sigma-Aldrich, cat. A9165), 10 mM nicotinamide (Sigma-Aldrich, cat. N0636), 1X B-27 supplement (Thermo Fisher Scientific, cat. 17504044), 1X N-2 supplement (Thermo Fisher Scientific, cat. 17502048), and 10 microM Y-27632 dihydrochloride (Tocris Bioscience, cat. 1254). The 876862-298-R-J1-PDC was cultured in 6E media, which includes all 6B/Colon 1A media components plus 50% L-WRN conditioned media (ATCC, cat. CRL-3276), 50 ng/mL recombinant human EGF recombinant protein (hEGF; Thermo Fisher Scientific, cat. PHG0311), 10 ng/mL recombinant human fibroblast growth factor 10 (hGFG-10; PeproTech, cat. 100-26), 1 ng/mL recombinant human fibroblast growth factor 2 (hFGF-2; PeproTech, cat. 100-18B), and 1 µM prostaglandin E2 (PGE2; Tocris, cat. 2296). The 227483-062-R1-J1-PDC line was cultured in Panc media, containing all 6E components except hFGF-2, with the addition of 500 nM SB-431542 (Selleckchem, cat. S1067) and 10 nM gastrin (Tocris, cat. 3006). […]

[1] = second compound 0.0316 µM, first compound 0.0316 µM
[2] = second compound 0.0316 µM, first compound 0.1 µM
[3] = second compound 0.0316 µM, first compound 0.316 µM
[4] = second compound 0.0316 µM, first compound 1 µM
[5] = second compound 0.0316 µM, first compound 3.16 µM
[6] = second compound 0.0316 µM, first compound 10 µM
[7] = second compound 0.1 µM, first compound 0.0316 µM
[8] = second compound 0.1 µM, first compound 0.1 µM
[9] = second compound 0.1 µM, first compound 0.316 µM
[10] = second compound 0.1 µM, first compound 1 µM
[11] = second compound 0.1 µM, first compound 3.16 µM
[12] = second compound 0.1 µM, first compound 10 µM
[13] = second compound 0.316 µM, first compound 0.0316 µM
[14] = second compound 0.316 µM, first compound 0.1 µM
[15] = second compound 0.316 µM, first compound 0.316 µM
[16] = second compound 0.316 µM, first compound 1 µM
[17] = second compound 0.316 µM, first compound 3.16 µM
[18] = second compound 0.316 µM, first compound 10 µM
[19] = second compound 1 µM, first compound 0.0316 µM
[20] = second compound 1 µM, first compound 0.1 µM
[21] = second compound 1 µM, first compound 0.316 µM
[22] = second compound 1 µM, first compound 1 µM
[23] = second compound 1 µM, first compound 3.16 µM
[24] = second compound 1 µM, first compound 10 µM
[25] = second compound 3.16 µM, first compound 0.0316 µM
[26] = second compound 3.16 µM, first compound 0.1 µM
[27] = second compound 3.16 µM, first compound 0.316 µM
[28] = second compound 3.16 µM, first compound 1 µM
[29] = second compound 3.16 µM, first compound 3.16 µM
[30] = second compound 3.16 µM, first compound 10 µM
[31] = second compound 10 µM, first compound 0.0316 µM
[32] = second compound 10 µM, first compound 0.1 µM
[33] = second compound 10 µM, first compound 0.316 µM
[34] = second compound 10 µM, first compound 1 µM
[35] = second compound 10 µM, first compound 3.16 µM
[36] = second compound 10 µM, first compound 10 µM
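Further: spheroids exposed to the compounds for 7 days.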

C=CC(=O)N1CCN(c2nc(=O)n(-c3c(C)ccnc3C(C)C)c3nc(-c4c(O)cccc4F)c(F)cc23)C(C)C1 (centres undefined) + CN1CCN(c2cc(C(=O)Nc3cc4cc(-c5cnn(C)c5)ccc4cn3)ccn2)CC1
IC50 (second compound 0.0316 µM): > 10000 nM | IC50 (second compound 0.1 µM): > 10000 nM | IC50 (second compound 0.316 µM): < 31.6 nM | IC50 (second compound 1 µM): < 31.6 nM | IC50 (second compound 3.16 µM): < 31.6 nM | IC50 (second compound 10 µM): < 31.6 nM | viability, T/C [1]: 86.4% | viability, T/C [2]: 98.4% | viability, T/C [3]: 96.1% | viability, T/C [4]: 131% | viability, T/C [5]: 129% | viability, T/C [6]: 125% | viability, T/C [7]: 81% | viability, T/C [8]: 73.3% | viability, T/C [9]: 82.2% | viability, T/C [10]: 86.3% | viability, T/C [11]: 93.9% | viability, T/C [12]: 109% | viability, T/C [13]: 16.9% | viability, T/C [14]: 16.9% | viability, T/C [15]: 21.9% | viability, T/C [16]: 11.1% | viability, T/C [17]: 17.8% | viability, T/C [18]: 12.2% | viability, T/C [19]: 0.5% | viability, T/C [20]: 0.38% | viability, T/C [21]: 0.54% | viability, T/C [22]: 2.26% | viability, T/C [23]: 0.49% | viability, T/C [24]: 0.41% | viability, T/C [25]: 0.17% | viability, T/C [26]: 2.77% | viability, T/C [27]: 1.11% | viability, T/C [28]: 0.43% | viability, T/C [29]: 0.45% | viability, T/C [30]: 0.24% | viability, T/C [31]: 0.68% | viability, T/C [32]: 0.21% | viability, T/C [33]: 1.43% | viability, T/C [34]: 0.18% | viability, T/C [35]: 0.17% | viability, T/C [36]: 3.04%

COC1C=CCC(C)C(C)S(=O)(=O)NC(=O)c2ccc3c(c2)N(CC2CCC21)CC1(CCCc2cc(Cl)ccc21)CO3 (centres undefined) + CN1CCN(c2cc(C(=O)Nc3cc4cc(-c5cnn(C)c5)ccc4cn3)ccn2)CC1
IC50 (second compound 0.0316 µM): 1390 nM | IC50 (second compound 0.1 µM): 1150 nM | IC50 (second compound 0.316 µM): < 31.6 nM | IC50 (second compound 1 µM): < 31.6 nM | IC50 (second compound 3.16 µM): < 31.6 nM | IC50 (second compound 10 µM): < 31.6 nM | viability, T/C [1]: 101% | viability, T/C [2]: 93.2% | viability, T/C [3]: 66.2% | viability, T/C [4]: 60.8% | viability, T/C [5]: 34.7% | viability, T/C [6]: 18.2% | viability, T/C [7]: 77.1% | viability, T/C [8]: 74.3% | viability, T/C [9]: 65.2% | viability, T/C [10]: 56.1% | viability, T/C [11]: 15.2% | viability, T/C [12]: 8.09% | viability, T/C [13]: 21.6% | viability, T/C [14]: 14.9% | viability, T/C [15]: 11.8% | viability, T/C [16]: 6.03% | viability, T/C [17]: 6.07% | viability, T/C [18]: 5.99% | viability, T/C [19]: 0.48% | viability, T/C [20]: 0.33% | viability, T/C [21]: 1.14% | viability, T/C [22]: 0.2% | viability, T/C [23]: 2.7% | viability, T/C [24]: 1.73% | viability, T/C [25]: 0.85% | viability, T/C [26]: 0.74% | viability, T/C [27]: 0.27% | viability, T/C [28]: 0.44% | viability, T/C [29]: 0.33% | viability, T/C [30]: 1.12% | viability, T/C [31]: 0.79% | viability, T/C [32]: 0.24% | viability, T/C [33]: 0.61% | viability, T/C [34]: 0.22% | viability, T/C [35]: 1.51% | viability, T/C [36]: 0.24%
